In patent US6458835B2, “Method of inhibiting or treating chemotherapy-induced hair loss” (Bristol-Myers Squibb Company, priority 1997, dated 2002):

How the values were obtained:
C3H mice = test: Hair growth (hair follicle stimulation) in C3H mouse model, topical application; type: in vivo; conditions: for percent of animals showing hair follicle stimulation / time of onset of follicle stimulation: 2% solution topical 1x daily; for time of onset of follicle stimulation: male C3H mice, 5 days per week
Source text: The two enantiomers were compared topically for hair growth in C3H mice.
The C3H mouse is a useful model for studying hair growth. Its usefulness rests with the fact that skin pigmentation of this animal is provided by the melanocytes of the hair follicle and not the epidermis. In the telogen or the resting phase of the hair follicle, the skin is pink. In the earliest phase of anagen or the growth phase, there is sudden graying of the skin and as the anagen phase progresses the skin becomes darker in color. In this study, visual observation was used as an in vivo assay of anagen induction. Furthermore as anagen develops, the skin thickness increases from a thin telogen skin to a measurably thickened anagen skin. Thus, recording the skin color and microscopic thickness of skin from these mice offers a sensitive, quantifiable and convenient method of assessing the phases of hair growth.
Groups of 20, six to seven week old male C3H mice with hair follicles in the resting phase of hair growth were used. At this stage in their life, the hair follicles remain in the telogen phase for up to 30 days or longer. This provides an adequate window of time to screen drugs. […] This stimulation is manifested by the shortening of the telogen phase of the hair follicle cycle.
Animals were anesthetized with ketamine/rompun (100 mg/Kg and 12 mg/Kg) IP and the hair over a defined dorsal area were closely clipped.
The vehicle employed was ethanol/propylene glycol/water, 60/30/10. Treatment was continued for at least 4-5 weeks.
Animals were observed daily for side effects and changes to the test sites. All observations were documented. Test sites were graded weekly for changes in skin color and hair growth. In this study drug effects were evaluated using the visual observation of skin changing from pink to gray and resulting in hair growth.

## C[C@@H](NC(=NC#N)Nc1ccc(C#N)cc1)C(C)(C)C [Example 1, (R)-4-[[(Cyanoimino)[(1,2,2-trimethylpropyl)amino]-methyl]amino]benzonitrile]
Vasorelaxant potency
  IC50: 47 ± 17 nM
other
  melting point: 159 to 160 °C
C3H mice; C3H mice, versus (S)-enantiomer
  onset of action compared to the corresponding enantiomer: faster onset of action
C3H mice; by day 11 of treatment
  percent of animals showing hair follicle stimulation: 40%
C3H mice; by day 14
  percent of animals showing hair follicle stimulation: 50%
C3H mice; by day 28
  percent of animals showing hair follicle stimulation: 85%
C3H mice
  time of onset of follicle stimulation: 7 days
C3H mice; producing hair growth within 11 days of treatment
  hair growth promoting ability relative to the (S)-enantiomer: 8 times
C3H mice; throughout the treatment period, versus Example 2-(S)-enantiomer
  incidence of hair follicle stimulation compared to the other enantiomer: higher incidence of hair follicle stimulation

## C[C@H](NC(=NC#N)Nc1ccc(C#N)cc1)C(C)(C)C [Example 2, (S)-4-[[(Cyanoimino)[(1,2,2-trimethylpropyl)amino]-methyl]amino]benzonitrile]
Vasorelaxant potency
  IC50: 157 ± 35 nM
other
  melting point: 158 to 159 °C
C3H mice; by day 11 of treatment
  percent of animals showing hair follicle stimulation: 5%
C3H mice; by day 14
  percent of animals showing hair follicle stimulation: 25%
C3H mice; by day 28
  percent of animals showing hair follicle stimulation: 65%
C3H mice
  time of onset of follicle stimulation: 11 days
